Experimental data published in patent publication US10202361B2, “Pyridazinones as herbicides” (E I DU PONT DE NEMOURS AND COMPANY, priority 2014, dated 2019).

Assays:
Assay in all cases: Test E pre-/postemergence greenhouse herbicide test
Assay type in all cases: in vivo
Conditions in all cases: Preemergence, scale 0 to 100
[1] = tested on: arrowleaf sida (Sida rhombifolia)
How it was run: (§1)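 Preemergence: seeds sown in silt loam soil and sprayed with test chemicals in a non-phytotoxic solvent mixture containing surfactant. Postemergence: plants at 1- to 4-leaf stage (2 to 18 cm) in peat/vermiculite medium treated with the same formulation. Visual rating after 14 to 21 d in greenhouse, 0 (no effect) to 100 (complete control) versus controls.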

[2] = tested on: crabgrass, Brazil (Brazilian crabgrass, Digitaria horizontalis)
How it was run: as §1

[3] = tested on: dayflower, VA (Virginia dayflower, Commelina virginica)
How it was run: as §1

[4] = tested on: field bindweed (Convolvulus arvensis)
How it was run: as §1

[5] = tested on: foxtail, giant (giant foxtail, Setaria faberii)
How it was run: as §1

[6] = tested on: sandbur (southern sandbur, Cenchrus echinatus)
How it was run: as §1

[7] = tested on: waterhemp (common waterhemp, Amaranthus rudis)
How it was run: as §1

CCOc1cc(=O)n(-c2ccc(F)cc2)nc1Cc1ccnc(C(F)(F)F)c1 [Compound 25, 5-ethoxy-2-(4-fluorophenyl)-6-[[2-(trifluoromethyl)-4-pyridinyl]methyl]-3 (2H)-pyridazinone]
Plant response rating: Arrowleaf Sida ([1]; 8 g ai/ha): 0
Plant response rating: Arrowleaf Sida ([1]; 16 g ai/ha): 5
Plant response rating: Arrowleaf Sida ([1]; 31 g ai/ha): 5
Plant response rating: Arrowleaf Sida ([1]; 62 g ai/ha): 35
Plant response rating: Arrowleaf Sida ([1]; 125 g ai/ha): 40
Plant response rating: Crabgrass, Brazil ([2]; 8 g ai/ha): 0
Plant response rating: Crabgrass, Brazil ([2]; 16 g ai/ha): 75
Plant response rating: Crabgrass, Brazil ([2]; 31 g ai/ha): 98
Plant response rating: Crabgrass, Brazil ([2]; 62 g ai/ha): 100
Plant response rating: Crabgrass, Brazil ([2]; 125 g ai/ha): 100
Plant response rating: Dayflower, VA ([3]; 8 g ai/ha): 0
Plant response rating: Dayflower, VA ([3]; 16 g ai/ha): 0
Plant response rating: Dayflower, VA ([3]; 31 g ai/ha): 15
Plant response rating: Dayflower, VA ([3]; 62 g ai/ha): 20
Plant response rating: Dayflower, VA ([3]; 125 g ai/ha): 70
Plant response rating: Field Bindweed ([4]; 8 g ai/ha): 0
Plant response rating: Field Bindweed ([4]; 16 g ai/ha): 0
Plant response rating: Field Bindweed ([4]; 31 g ai/ha): 0
Plant response rating: Field Bindweed ([4]; 62 g ai/ha): 5
Plant response rating: Field Bindweed ([4]; 125 g ai/ha): 100
Plant response rating: Foxtail, Giant ([5]; 8 g ai/ha): 0
Plant response rating: Foxtail, Giant ([5]; 16 g ai/ha): 0
Plant response rating: Foxtail, Giant ([5]; 31 g ai/ha): 0
Plant response rating: Foxtail, Giant ([5]; 62 g ai/ha): 5
Plant response rating: Foxtail, Giant ([5]; 125 g ai/ha): 20
Plant response rating: Sandbur ([6]; 8 g ai/ha): 0
Plant response rating: Sandbur ([6]; 16 g ai/ha): 0
Plant response rating: Sandbur ([6]; 31 g ai/ha): 20
Plant response rating: Sandbur ([6]; 62 g ai/ha): 30
Plant response rating: Sandbur ([6]; 125 g ai/ha): 60
Plant response rating: Waterhemp ([7]; 8 g ai/ha): 35
Plant response rating: Waterhemp ([7]; 16 g ai/ha): 50
Plant response rating: Waterhemp ([7]; 31 g ai/ha): 100
Plant response rating: Waterhemp ([7]; 62 g ai/ha): 100
Plant response rating: Waterhemp ([7]; 125 g ai/ha): 100
